The results in this text go back to patent US20120046331A1, “Antifungal Agents and Uses Thereof” (priority 2010, published 2012).

For orientation: MIC means the least concentration at which growth counts as inhibited. By MIC50 is commonly meant an inhibitory concentration at the 50% level, which refers to growth in some studies and to a panel of isolates in others. Usually MIC90 stands for an inhibitory concentration at the 90% level, which refers to growth in some studies and to a panel of isolates in others.

One assay has as its system E. floccosum. Put plainly: Checkerboard combination testing of compound 8 with antifungals, FIC (Example 1). Type of assay: cell-based, Epidermophyton floccosum. The conditions noted are these: in combination with Cpd 8, one value per clinical isolate (Strain # 1-6). The method, then:
(§1) This example describes the in vitro activity of combinations of compounds according to the present invention and antifungal agents against a collection of dermatophytic fungal pathogens. Antifungal susceptibility testing was adapted from the CLSI M38-A broth microdilution method for dermatophytes (NCCLS-M38-A2 2008). Combination testing was performed by checkerboard method (with compound 8 in combination with fluconazole, itraconazole or terbinafine). A total of 30 isolates of 5 different fungal species were tested in the combination test: 6 isolates each of Trichophyton tonsurans, Trichophyton rubrum, Epidermophyton floccosum, Trichophyton mentagrophytes and Microsporum canis. Clinical isolates were obtained by the Laboratory of Dr. M. Ghannoum at Case Western University.
Synergy was assessed using the fractional inhibitory concentration (FIC), an interaction coefficient, with the following definitions:
The fold reduction of the itraconazole minimum inhibitory concentration (MIC) was also evaluated.

A further assay has as its system T. rubrum. As to the kind of experiment: MIC testing, modified CLSI M38-A2 for dermatophytes (Example 2). Type of assay: cell-based, Trichophyton rubrum. The conditions noted are these: for MIC50: lowest concentration to inhibit 50% of the strains tested, n = 20.
The test system of the next assay is T. mentagrophytes. The description is as above. The assay is classed as cell-based. The following applies: n = 5 strains; for MIC50 / MIC90: Trichophyton mentagrophytes. The method, then: (§2) MIC testing was performed according to the modification of the CLSI M38-A2 standard for dermatophytes developed at the Center (CLSI. Reference Method for Broth Dilution Antifungal Susceptibility Testing of Filamentous Fungi; Approved Standard-Second Edition. CLSI document M38-A2 [ISBN 1-56238-668-9]. CLSI, 940 West Valley Road, Suite 1400, Wayne, Pa. 19087-1898 USA, 2008; Ghannoum M A, et al. Intra- and Interlaboratory Study of a Method for Testing the Antifungal Susceptibilities of Dermatophytes. 2004 J Clin Microbiol 42:(7): 2977-2979). Compound 8 and fluconazole were tested in combination using a checkerboard microdilution method. The interaction between Compound 8 and fluconazole was determined by FIC Index, or Fractional Inhibitory Concentration Index, which assigns a numerical value to the interaction of the two antifungals.

Another assay has as its system T. tonsurans. The description is as above. The following applies: n = 5 strains; for MIC50 / MIC90: Trichophyton tonsurans. Type of assay: cell-based. The method, then:
as §2

Assay [1] relates to panel of clinical isolates of 5 common dermatophytic fungi. As to the kind of experiment: Checkerboard combination testing, whole panel (Example 1). The following applies: terbinafine alone; reason why synergy could not be determined. The assay is classed as cell-based. The method, then: as §1
Synergy was assessed using the fractional inhibitory concentration (FIC), an interaction coefficient, with the following definitions: […]

Where [2] appears, read: Trichophyton rubrum, read-out: MIC50.
[3] abbreviates: Trichophyton rubrum, n = 20 strains.

Structures are written as SMILES. In brackets after ≈: the same amount, converted by molar mass. Entries after “also recorded” stand apart in the source; their conditions may differ. Where two headings read alike, the source gives them in different places.

As to `CCC(C)n1ncn(-c2ccc(N3CCN(c4ccc(OCC5COC(Cn6cncn6)(c6ccc(Cl)cc6Cl)O5)cc4)CC3)cc2)c1=O` (stereo not drawn) [Itraconazole, itraconazole, reference compound], the MIC with E. floccosum (Epidermophyton floccosum, read-out: Itraconazole MIC with Cpd 8) is 0.015 µg/mL. Further, the “Itraconazole MIC with Cpd 8” value in the assay on E. floccosum turned out to be 0.008 µg/mL.
As for `OC(Cn1cncn1)(Cn1cncn1)c1ccc(F)cc1F` [Fluconazole, fluconazole], the MIC50 came to 1 µg/mL (≈ 3.27 µM) in the assay on T. rubrum (setting [2]), 1 µg/mL (≈ 3.27 µM) with T. rubrum, 16 µg/mL with T. mentagrophytes and 2 µg/mL in the assay with T. tonsurans. Also, the results for the MIC90 against T. rubrum (setting [3]), with T. mentagrophytes and in the assay on T. tonsurans were 1 µg/mL (≈ 3.27 µM), 16 µg/mL and 4 µg/mL, respectively. Besides, the “MIC Range” value with T. rubrum (n = 20 strains) was in the range of 0.25 to 4.0 µg/mL; with T. mentagrophytes, 2.0 to 16.0 µg/mL; in the assay on T. tonsurans it was 1.0 to 4.0 µg/mL.
Turning to `CN(C/C=C/C#CC(C)(C)C)Cc1cccc2ccccc12` [Terbinafine, terbinafine], the values for the MIC50 in the assay on T. rubrum (setting [2]), with T. mentagrophytes and in the assay on T. tonsurans were 0.016 µg/mL (≈ 0.0549 µM), 0.008 µg/mL and 0.002 µg/mL, respectively. Further, the results for the MIC90 in the assay with T. rubrum (setting [3]), in the assay with T. mentagrophytes and in the assay with T. tonsurans were 8 µg/mL (≈ 27.5 µM), 0.016 µg/mL and 0.002 µg/mL, respectively. Besides, in assay [1], the “Potency (MIC) of terbinafine, in words” value is on record as “extremely low MIC; also recorded: † = synergy could not be determined because of the high potency (extremely low MIC) of terbinafine”. Besides, the “MIC Range” value in the assay on T. mentagrophytes is 0.004 to 0.016 µg/mL; in the assay with T. tonsurans, 0.001 to 0.016 µg/mL.
